One assay deals with GARFTase. The following applies: read-out: reported Ki with GARFTase; in vitro assays; cited from earlier work.
Assay [1] concerns the target T1, human GARFTase (formyltransferase domain) (Homo sapiens, UniProt P22102).
T1 sequence (P22102 810-1010 limits assumed): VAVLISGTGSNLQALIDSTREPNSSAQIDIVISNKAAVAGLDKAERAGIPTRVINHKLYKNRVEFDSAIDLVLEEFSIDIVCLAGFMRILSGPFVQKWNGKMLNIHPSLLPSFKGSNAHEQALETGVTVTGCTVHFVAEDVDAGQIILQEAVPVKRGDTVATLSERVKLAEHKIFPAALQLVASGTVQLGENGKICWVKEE
The experiment in a line: GAR transformylase. As to conditions: ratio of Ki values. The format is biochemical.

As usually defined, the Ki is a dissociation constant, usually derived from enzyme kinetics or from competition with a known ligand. As to `Nc1nc(N)c(CCCC(C(=O)C(F)(F)F)c2ccc(C(=O)N[C@@H](CCC(=O)O)C(=O)O)cc2)c(=O)[nH]1` (some centres unmarked) [10-trifluoroacetyl antifolate, 10-(trifluoroacetyl)-5,10-dideazaacyclic-5,6,7,8-tetrahydrofolic acid], the inhibition constant Ki on GARFTase is 0.015 µM. In the case of `Nc1nc2[nH]c(CCCCCCCC(=O)N[C@@H](CCC(=O)O)C(=O)O)cc2c(=O)[nH]1` [AGF147], the “fold weaker GARFTase inhibition than AGF94 and AGF145” value in assay [1] is “roughly 1.5 fold”.

Values taken from article PMC5238714 (Biochemistry, 2016).
